In brackets after ≈: the same amount, converted by molar mass. Activity calls are given as the source filed them. The rule behind the calls is not given here.

From ChEMBL document CHEMBL3860026, “Depsidones from Lichens as Natural Product Inhibitors of M-Phase Phosphoprotein 1, a Human Kinesin Required for Cytokinesis” (J Nat Prod, 2016) come the findings set out here.

Data set [1] addresses T1, Kinesin-like protein KIF20B (Homo sapiens, UniProt Q96Q89). The following applies: 1 to 20 uM.
Data set [2] deals with T2, Kinesin-like protein KIF9 (Homo sapiens) (UniProt Q9HAQ2).
T2 sequence (whole entry): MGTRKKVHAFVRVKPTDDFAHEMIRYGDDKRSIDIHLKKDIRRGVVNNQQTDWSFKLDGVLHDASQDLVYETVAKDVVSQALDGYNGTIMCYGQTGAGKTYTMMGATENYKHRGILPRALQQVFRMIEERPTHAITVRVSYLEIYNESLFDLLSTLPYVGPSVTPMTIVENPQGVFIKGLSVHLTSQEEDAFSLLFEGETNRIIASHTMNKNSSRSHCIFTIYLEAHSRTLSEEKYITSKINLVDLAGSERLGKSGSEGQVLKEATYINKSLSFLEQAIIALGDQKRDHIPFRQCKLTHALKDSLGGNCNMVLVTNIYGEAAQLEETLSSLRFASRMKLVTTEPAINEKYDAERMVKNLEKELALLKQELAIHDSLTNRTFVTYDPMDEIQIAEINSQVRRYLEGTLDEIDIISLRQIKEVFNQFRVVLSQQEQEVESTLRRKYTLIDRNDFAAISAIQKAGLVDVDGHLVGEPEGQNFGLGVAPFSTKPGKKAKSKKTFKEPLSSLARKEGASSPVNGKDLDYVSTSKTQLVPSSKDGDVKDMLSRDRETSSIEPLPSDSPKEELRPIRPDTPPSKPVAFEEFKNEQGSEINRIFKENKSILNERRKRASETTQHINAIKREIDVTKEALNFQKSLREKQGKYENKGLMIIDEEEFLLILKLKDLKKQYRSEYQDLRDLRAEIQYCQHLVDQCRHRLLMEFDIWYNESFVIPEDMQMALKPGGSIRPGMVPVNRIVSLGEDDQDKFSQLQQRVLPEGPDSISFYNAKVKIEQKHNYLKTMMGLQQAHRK
The data set is described as follows: Inhibition of microtubule-stimulated ATPase activity of human Kif9 at 200 uM by pyruvate kinase/lactate dehydrogenase-linked assay.

Data set [3] concerns the target T1, Kinesin-like protein KIF20B. The data set is described as follows: Inhibition of basal ATPase activity of N-terminal His6-tagged/SUMO-fused human MPP1 motor domain (2 to 477 residues) expressed in Escherichia coli BL21 CodonPlus by pyruvate kinase/lactate dehydrogenase-linked assay.
For data set [4] the target is unchanged. Description: Inhibition of basal ATPase activity of N-terminal His6-tagged/SUMO-fused human MPP1 motor domain (57 to 491 residues) expressed in Escherichia coli BL21 CodonPlus in presence of 0.1% Tween-20 by pyruvate kinase/lactate dehydrogenase-linked assay.
Data set [5] is described as follows: Solubility of the compound in phosphate buffered saline at pH 7.4 after 2 hrs by turbidimetric method. It is filed as physicochemical.
The nature of data set [6]: Solubility of the compound in phosphate buffered saline at pH 2 after 2 hrs by turbidimetric method. It counts as physicochemical.

T1 sequence (Q96Q89 whole entry): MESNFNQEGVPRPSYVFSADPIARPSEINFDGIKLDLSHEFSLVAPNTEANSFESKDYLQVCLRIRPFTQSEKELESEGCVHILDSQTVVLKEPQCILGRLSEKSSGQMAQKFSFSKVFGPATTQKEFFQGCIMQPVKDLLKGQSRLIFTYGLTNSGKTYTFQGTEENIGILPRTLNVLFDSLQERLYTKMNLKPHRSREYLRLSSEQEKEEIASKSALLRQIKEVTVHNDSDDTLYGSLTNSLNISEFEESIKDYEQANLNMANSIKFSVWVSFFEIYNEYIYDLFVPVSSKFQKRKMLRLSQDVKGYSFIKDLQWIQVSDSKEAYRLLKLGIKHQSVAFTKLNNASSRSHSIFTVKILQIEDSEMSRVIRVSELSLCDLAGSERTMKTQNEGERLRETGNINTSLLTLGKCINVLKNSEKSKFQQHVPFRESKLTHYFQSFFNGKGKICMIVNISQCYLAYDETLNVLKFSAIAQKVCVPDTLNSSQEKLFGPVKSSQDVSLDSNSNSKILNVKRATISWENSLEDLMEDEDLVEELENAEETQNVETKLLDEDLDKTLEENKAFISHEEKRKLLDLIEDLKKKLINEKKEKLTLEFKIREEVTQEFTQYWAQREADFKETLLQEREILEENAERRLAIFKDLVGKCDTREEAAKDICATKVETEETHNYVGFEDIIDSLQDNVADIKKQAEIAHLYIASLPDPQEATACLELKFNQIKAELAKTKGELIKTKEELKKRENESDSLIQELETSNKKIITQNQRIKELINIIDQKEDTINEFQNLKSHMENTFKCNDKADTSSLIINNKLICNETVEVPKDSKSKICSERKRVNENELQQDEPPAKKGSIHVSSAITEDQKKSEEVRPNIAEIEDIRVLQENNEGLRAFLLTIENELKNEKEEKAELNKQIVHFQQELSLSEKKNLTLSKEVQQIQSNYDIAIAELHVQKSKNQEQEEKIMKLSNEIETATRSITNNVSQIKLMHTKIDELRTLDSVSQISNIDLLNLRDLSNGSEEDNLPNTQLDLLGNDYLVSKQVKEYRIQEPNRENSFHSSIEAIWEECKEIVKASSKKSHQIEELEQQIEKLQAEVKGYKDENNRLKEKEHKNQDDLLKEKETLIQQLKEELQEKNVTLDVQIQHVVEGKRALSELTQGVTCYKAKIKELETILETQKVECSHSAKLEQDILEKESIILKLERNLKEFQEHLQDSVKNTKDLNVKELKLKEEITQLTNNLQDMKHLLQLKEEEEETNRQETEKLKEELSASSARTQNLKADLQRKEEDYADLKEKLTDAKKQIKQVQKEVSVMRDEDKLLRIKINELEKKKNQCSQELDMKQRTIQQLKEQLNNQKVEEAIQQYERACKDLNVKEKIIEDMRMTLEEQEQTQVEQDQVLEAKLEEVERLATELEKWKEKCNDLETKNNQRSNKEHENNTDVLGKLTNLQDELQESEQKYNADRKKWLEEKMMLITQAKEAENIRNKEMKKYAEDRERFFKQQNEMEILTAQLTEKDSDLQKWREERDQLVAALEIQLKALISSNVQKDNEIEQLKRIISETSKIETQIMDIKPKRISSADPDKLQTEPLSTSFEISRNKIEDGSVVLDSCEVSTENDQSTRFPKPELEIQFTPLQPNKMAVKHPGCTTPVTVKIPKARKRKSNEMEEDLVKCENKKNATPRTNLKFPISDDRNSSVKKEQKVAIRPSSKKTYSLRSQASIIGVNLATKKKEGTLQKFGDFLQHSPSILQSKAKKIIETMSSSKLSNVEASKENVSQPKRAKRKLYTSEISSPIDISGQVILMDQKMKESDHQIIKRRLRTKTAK

One may read the inhibition as the relative decrease from the control value, in per cent. For orientation: IC50 means the concentration at which inhibition is half-maximal. Read a high IC50 as weaker potency in that assay. What is called kinetic solubility is solubility judged after dilution from a stock solution rather than from solid. `CCCCCC(=O)Cc1cc(O)cc2c1C(=O)Oc1cc(O)c(C(=O)O)c(CCCCC)c1O2` [PHYSODIC ACID]: the inhibition entry in data set [1] and in data set [4] was “Active” each time. Moreover, the inhibition in data set [2] came out at 50%. This compound also yielded a half-inhibitory concentration (IC50) in data set [3] of 10.4 µM. The Imax in data set [3] worked out at 90%. Moreover, the kinetic solubility at 2 h in data set [5] was > 100 µM; in data set [6], 3.75 µM (≈ 1.76 µg/mL).
